The text below walks through data of patent US20250235462A1, “NOVEL CAPSID ASSEMBLY INHIBITORS” (AM SCIENCES INC, priority 2021, published 2025).

Data set [1] is described as follows: Cell viability assay (EZ-Cytox) in HepAD38 cells. The format is cell-based. To be noted: human, 65 hours of treatment; for CC50 at 65 h: read-out: Cytotoxicity CC50; for viability at 65 h, 100 µM: read-out: Cytotoxicity % Livability (@100 μM). The method, then:
HepAD38 cells were cultured for 2 days in Dulbecco's Modified Eagle's medium (Welgene, LM001-05) supplemented with 10% FBS without tetracycline. The cells were seeded in 48-well culture plates (1×10^5 cells/well) and treated with each compound at five concentrations (0 μM (0.8% DMSO as a control), 33 μM, 50 μM, 66 μM, and 100 μM). After 65 hours of treatment, viability was measured using EZ-Cytox cell viability assay kit (Daeil Lab Service) according to the manufacturer's instructions. The absorbance was measured at 450 nm using a spectrophotometer (Spark, Tecan). Here, NVR-3-778 (denoted as NVR) was used as a positive control.

Data set [2] concerns the target Protein (capsid assembly) (Hepatitis B virus genotype D subtype ayw, UniProt P03146). The experiment in a line: Protein inhibition (capsid assembly inhibition), Table 1. The format is biochemical. The following applies: @30 μM; read-out: Protein % inhibition rate (@30 μM).
Another data set deals with intracellular HBV DNA. The experiment in a line: Real-time PCR for intracellular HBV DNA in HepAD38 cells. It counts as cell-based, hepatitis B virus (HBV). The following applies: Hepatitis B virus, HePAD38, 65 h, treated for 65 hours, intracellular HBV DNA by real-time PCR. The method, then:
HepAD38 cells were cultured in DMEM medium (Welgene) supplemented with 200 unit/mL penicillin, 200 μg/mL streptomycin, and 10% FBS. During maintenance and passage, the cells were cultured together with 0.4 μg/mL tetracycline. Two days before the treatment with compounds for inducing HBV replication was started, the medium was replaced with a tetracycline-free complete growth medium. […]
HepAD38 cells were treated with a compound for 65 hours and then recovered, and intracellular HBV DNA was extracted therefrom according to the protocol in the DNeasy Blood & Tissue Kit (Qiagen). The primers and probes used to quantify HBV DNA were 5′-[…]-3′, 5′-[…]-3′, and 5′-/56-FAM/TGT CCT GGT/ZEN/[…]/3IABKFQ/-3′. The HBV DNA was amplified by real-time PCR assay using LightCycler 480 (Roche) (J. Virol., 2018, 92(16):e00339-18). All of the processes were confirmed in duplicate.
(In general: Quantitative PCR measures a nucleic acid by following its amplification.)

Chain of Protein (capsid assembly) (P03146 whole entry): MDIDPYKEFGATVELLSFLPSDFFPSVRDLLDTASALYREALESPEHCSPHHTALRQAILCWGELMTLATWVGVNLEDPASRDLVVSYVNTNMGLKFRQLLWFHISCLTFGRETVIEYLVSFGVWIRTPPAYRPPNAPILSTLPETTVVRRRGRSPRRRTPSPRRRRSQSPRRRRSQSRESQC

By CC50 is commonly meant the concentration that lowers cell viability or growth by half. As a reminder, the inhibition is the change of the read-out against control, counted positive when it falls. As a reminder, the IC50 is the concentration at which inhibition is half-maximal. Higher therefore signals weaker potency. `COc1ccc(N(Cc2nnc(-c3ccccc3)n2C)C(=O)Nc2ccc(F)c(Cl)c2)cc1` [Example 24, 3-(3-Chloro-4-fluorophenyl)-1-(4-methoxyphenyl)-1-((4-methyl-5-phenyl-4H-1,2,4-triazol-3-yl)methyl)urea]: the CC50 at 65 h in data set [1] is above 100000 nM. Besides, in data set [2], the inhibition at 30 µM is -1%. Further, the IC50 with intracellular HBV DNA is above 3300 nM.
Take `COc1ccc(N(Cc2nnc(C(F)F)n2C)C(=O)Nc2ccc(F)c(Cl)c2)cn1` [Example 48, 3-(3-Chloro-4-fluorophenyl)-1-((5-(difluoromethyl)-4-methyl-4H-1,2,4-triazol-3-yl)methyl)-1-(6-methoxypyridin-3-yl)urea]: in data set [1], the CC50 at 65 h was above 100000 nM and the viability at 65 h, 100 µM was determined as 102%. The IC50 with intracellular HBV DNA was above 1100 nM.
For the compound `COc1cc(N(Cc2nnc3n2CCOCC3)C(=O)Nc2ccc(F)c(Cl)c2)ccn1` [Example 47, 3-(3-Chloro-4-fluorophenyl)-1-(2-methoxypyridin-4-yl)-1-((5,6,8,9-tetrahydro-[1,2,4]triazolo[4,3-d][1,4]oxazepin-3-yl)methyl)urea], in data set [1], the CC50 at 65 h was above 100000 nM and the viability at 65 h, 100 µM stood at 81.2%. This compound gave an IC50 in the data set with intracellular HBV DNA of 92 nM.
In the case of `COCCn1c(CN(C(=O)Nc2ccc(F)c(Cl)c2)c2ccc(OC)nc2)nnc1C(F)F` [Example 51, 3-(3-Chloro-4-fluorophenyl)-1-((5-(difluoromethyl)-4-(2-methoxyethyl)-4H-1,2,4-triazol-3-yl)methyl)-1-(6-methoxypyridin-3-yl)urea], in data set [1], the CC50 at 65 h is above 100000 nM and the viability at 65 h, 100 µM came to 84.2%. In the data set with intracellular HBV DNA, this compound came in with an IC50 above 1100 nM.
For `COc1ccc(N(Cc2nnc(C(F)(F)F)n2C)C(=O)Nc2ccc(F)c(Cl)c2)cn1` [Example 49, 3-(3-Chloro-4-fluorophenyl)-1-(6-methoxypyridin-3-yl)-1-((4-methyl-5-(trifluoromethyl)-4H-1,2,4-triazol-3-yl)methyl)urea], in data set [1], the CC50 at 65 h is above 100000 nM and the viability at 65 h, 100 µM was 55.9%. For the same compound, the IC50 in the data set on intracellular HBV DNA was 438 nM.
For the compound `COCCn1c(CN(C(=O)Nc2ccc(F)c(Cl)c2)c2ccc(OC)nc2)nnc1C(F)(F)F` [Example 52, 3-(3-Chloro-4-fluorophenyl)-1-((4-(2-methoxyethyl)-5-(trifluoromethyl)-4H-1,2,4-triazol-3-yl)methyl)-1-(6-methoxypyridin-3-yl)urea], in data set [1], the CC50 at 65 h is above 100000 nM and the viability at 65 h, 100 µM is 55.4%. The compound also had an IC50 with intracellular HBV DNA above 1100 nM.
On the same counts, the results for `COc1ccc(N(Cc2nnc(C(F)F)n2CCO)C(=O)Nc2ccc(F)c(Cl)c2)cn1` [Example 53, 3-(3-Chloro-4-fluorophenyl)-1-((5-(difluoromethyl)-4-(2-hydroxyethyl)-4H-1,2,4-triazol-3-yl)methyl)-1-(6-methoxypyridin-3-yl)urea] are above 100000 nM, 99.1% and above 1100 nM.
On the same counts, the results for `O=C(Nc1ccc(F)c(Cl)c1)N(Cc1nnc2n1CCOCC2)c1ccnc(O)c1` [Example 46, 3-(3-chloro-4-fluorophenyl)-1-(2-hydroxypyridin-4-yl)-1-((5,6,8,9-tetrahydro-[1,2,4]triazolo[4,3-d][1,4]oxazepin-3-yl)methyl)urea] are above 100000 nM, 90.5% and above 1100 nM.
For `COc1ccc(N(Cc2nnc(C(F)(F)F)n2CCO)C(=O)Nc2ccc(F)c(Cl)c2)cn1` [Example 50, 3-(3-Chloro-4-fluorophenyl)-1-((4-(2-hydroxyethyl)-5-(trifluoromethyl)-4H-1,2,4-triazol-3-yl)methyl)-1-(6-methoxypyridin-3-yl)urea], in data set [1], the CC50 at 65 h was above 100000 nM and the viability at 65 h, 100 µM worked out at 101%. The IC50 in the data set with intracellular HBV DNA was above 1100 nM.
`Cc1cccc(NC(=O)N(Cc2nnc3n2CCCCC3)c2ccc3c(c2)OCO3)n1` [Example 20, 1-(Benzo[d][1,3]dioxol-5-yl)-3-(6-methylpyridin-2-yl)-1-((6,7,8,9-tetrahydro-5H-[1,2,4]triazolo[4,3-a]azepin-3-yl)methyl)urea]: in data set [2], the inhibition at 30 µM is 3%. This compound also had an IC50 with intracellular HBV DNA of 890 nM.
